Each structure is given as a SMILES string. Where two headings read alike, the source gives them in different places. Bounds are passed on as bounds.

Assay [1] has as its target T1, Bovine brain tubulin (Bos taurus, UniProt P81947+Q6B856).
T1 construct: from tissue; host or cells: bovine brain
The experiment in a line: Inhibition of [3H]colchicine binding to tubulin. The following applies: mean ±SD; for inhibition at 5 µM: 5 μM inhibitor, 1.0 μM tubulin, 5.0 μM [3H]colchicine, read-out: CB [% inhib.] 5 μM inhibitor. The protocol: (§1) Tubulin assays: Bovine brain tubulin, prepared as described previously,[16] was used in studies presented here. Assembly IC50 values were determined as described in detail elsewhere.[17] Briefly, 1.0 mg mL^−1 (10 μM) tubulin was pre-incubated without GTP with varying compound concentrations for 15 min at 30 °C. Reaction mixtures were placed on ice, and GTP (final concentration, 0.4 mM) was added. The reaction mixtures were transferred to cuvettes, held at 0 °C in a recording spectrophotometer. Baselines were established at 0 °C, and increase in turbidity was followed for 20 min following a rapid (<30 s) jump to 30 °C. Compound concentrations required to decrease the turbidity increase by 50 % were determined. The method for measuring inhibition of the binding of [^3H]colchicine to tubulin was described in detail previously.[18] Reaction mixtures contained 0.1 mg mL^−1 (1.0 μM) tubulin, 5.0 μM [^3H]colchicine, and potential inhibitor at 5.0 μM. […] A minimum of two experiments were performed with each compound.

The test system of assay [2] is HUVECs within a matrix of human diploid fibroblasts of dermal origin. The experiment in a line: In vitro model of angiogenesis (tubule formation, co-culture). The assay is classed as cell-based. The following applies: 25 nM and 50 nM, VEGF-stimulated, quantified after 11 days. The protocol:
Compounds 16 f and 17 f were also assayed for anti-angiogenic activity in an in vitro model of angiogenesis, wherein endothelial cells co-cultured in a matrix of human dermal fibroblasts are used to assess anti-angiogenic potential (Figure 2). When stimulated with VEGF the endothelial cells proliferate and migrate through the matrix to form tubule-like structures. The extent of tubule formation was quantified after 11 days as described elsewhere.[14] […] Quantification carried out by calculating total pixel length reflects the lack of tubule formation.
Cell lines: DU-145 (brain metastasis carcinoma of the prostate) and MDA MB-231 (metastatic pleural effusion of breast adenocarcinoma) established human cell lines were obtained from ATCC Global Bioresource Center. […] The effect of drugs on tubule formation was assessed using an angiogenesis kit (TCS-Cellworks).
Anti-angiogenic assays: HUVECs were cultured in a 24-well plate within a matrix of human diploid fibroblasts of dermal origin in optimised medium supplied by the company. […] The extent of tubule formation was then quantified, either manually by eye or using free software available through the National Institutes of Health website (NIH image [Mac version] from http://rsb.info.nih.gov/nih-image/download.html). […] After correcting for background the software counted the number of pixels representing tubules. […]

Assay [3] relates to DU-145 human prostate cancer cells. The experiment in a line: Antiproliferative assay (WST-1, 96 h), DU-145. The assay is classed as cell-based. Particulars: for GI50: Homo sapiens, DU-145 cells, 96 h, WST-1, mean of three determinations; for fold more active than the 3′-methoxy derivatives: vs 3′-methoxy derivatives 16 b and 17 b. The protocol: (§2) Cell lines: DU-145 (brain metastasis carcinoma of the prostate) and MDA MB-231 (metastatic pleural effusion of breast adenocarcinoma) established human cell lines were obtained from ATCC Global Bioresource Center. Cells were maintained in a 5 % CO2 humidified atmosphere at 37 °C in RPMI-1640 medium, supplemented with 10 % fetal bovine serum, penicillin, (100 U mL^−1), and streptomycin (0.1 mg mL^−1). The effect of drugs on tubule formation was assessed using an angiogenesis kit (TCS-Cellworks).
(§3) Antiproliferative assays: DU-145 and MDA MB-231 cells were seeded into 96-well microtitre plates (5000 cells per well) and treated with compound (10^−9–10^−4 M) or with vehicle control. At 96 h post-treatment, live cell counts were determined by WST-1 cell proliferation assay (Roche, Penzberg, Germany), as per the manufacturer’s instructions. Viability results were expressed as a percentage of mean control values resulting in the calculation of the 50 % growth inhibition (GI50). All experiments were performed in triplicate.
(In general: Formazan colour is commonly taken as a measure of viable cells.)

Assay [4] deals with Bovine brain tubulin. As to the kind of experiment: Tubulin polymerisation (assembly) assay. The assay is classed as biochemical. Particulars: 10 μM tubulin, mean ±SD of at least two determinations; read-out: TP IC50 (tubulin polymerisation). The procedure: as §1
A further assay addresses carbonic anhydrase. The experiment in a line: Carbonic anhydrase inhibition. The assay is classed as biochemical.
Assay [5] relates to MDA MB-231 human breast cancer cells. As to the kind of experiment: Antiproliferative assay (WST-1, 96 h), MDA MB-231. The assay is classed as cell-based. The following applies: MDA MB-231 cells, WST-1, mean of three determinations. The protocol: as §2, §3
Assay [6] concerns DU-145 human prostate cancer cells. On the set-up: method as in PMID 24124095. Particulars: DU-145 cells; data taken from the literature ref 8; cited from earlier work.
Assay [7] deals with MDA MB-231 human breast cancer cells. Also noted: method as in PMID 24124095. Particulars: MDA MB-231 cells; data taken from the literature ref 8; cited from earlier work.
Details of assay [8]: method as in PMID 22247790, PMID 24124095. Particulars: THIQ series, cell line not printed ref 7, 8; cited from earlier work.
A further assay deals with Leukemia CCRF-CEM. The experiment in a line: NCI 60-cell line assay, CCRF-CEM. The assay is classed as cell-based. Particulars: Homo sapiens, NCI-60 panel, mean of three determinations. The procedure:
(§4) Data from seven cell lines are presented along with the mean activity across the whole panel (MGM value). Screening was conducted at concentrations ranging from 10 nM upwards, with maximal activity (where a 50 % growth inhibition was obtained in all cell lines at a concentration of 10 nM) being indicated by an MGM value of 10 nM.

Another assay deals with Melanoma UACC-62. As to the kind of experiment: NCI 60-cell line assay, UACC-62. The assay is classed as cell-based. The following applies: Homo sapiens, NCI-60 panel, lowest concentration screened 10 nM. The procedure:
as §4

The next assay relates to NCI 60-cell line panel. As to the kind of experiment: NCI 60-cell line assay, mean across whole panel (MGM). The assay is classed as cell-based. The following applies: NCI-60 panel. The procedure: as §4
Another assay concerns Colon HCT-116. The experiment in a line: NCI 60-cell line assay, HCT-116. The assay is classed as cell-based. The following applies: Homo sapiens, NCI-60 panel, mean of three determinations. The protocol: as §4
The test system of a further assay is Ovarian OVCAR-3. As to the kind of experiment: NCI 60-cell line assay, OVCAR-3. The following applies: Homo sapiens, NCI-60 panel, lowest concentration screened 10 nM. The assay is classed as cell-based. The procedure: as §4
For a further assay, the system named is CNS SF-539. The experiment in a line: NCI 60-cell line assay, SF-539. The assay is classed as cell-based. Particulars: CNSSF-539; NCI-60 panel, mean of three determinations. The protocol:
as §4

A further assay concerns Renal SN12-C. The experiment in a line: NCI 60-cell line assay, SN12-C. The assay is classed as cell-based. The following applies: Homo sapiens, SN12C; NCI-60 panel, mean of three determinations. The procedure: as §4
The subject of the next assay is Lung HOP-62. The experiment in a line: NCI 60-cell line assay, HOP-62. The following applies: Homo sapiens, NCI-60 panel, mean of three determinations. The assay is classed as cell-based. The protocol:
as §4

T1 sequence (Q6B856 whole entry): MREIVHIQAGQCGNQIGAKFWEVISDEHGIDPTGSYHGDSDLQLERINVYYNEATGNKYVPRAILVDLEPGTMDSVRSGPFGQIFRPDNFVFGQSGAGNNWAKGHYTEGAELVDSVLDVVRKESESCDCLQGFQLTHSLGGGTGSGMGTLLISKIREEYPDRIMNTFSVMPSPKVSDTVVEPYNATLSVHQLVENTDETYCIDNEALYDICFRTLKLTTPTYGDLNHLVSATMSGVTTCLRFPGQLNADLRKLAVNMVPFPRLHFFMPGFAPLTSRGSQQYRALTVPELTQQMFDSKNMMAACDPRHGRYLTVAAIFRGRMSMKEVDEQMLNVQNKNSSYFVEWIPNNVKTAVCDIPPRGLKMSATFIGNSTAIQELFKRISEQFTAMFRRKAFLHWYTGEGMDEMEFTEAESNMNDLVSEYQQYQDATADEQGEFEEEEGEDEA
T1 sequence (P81947 whole entry): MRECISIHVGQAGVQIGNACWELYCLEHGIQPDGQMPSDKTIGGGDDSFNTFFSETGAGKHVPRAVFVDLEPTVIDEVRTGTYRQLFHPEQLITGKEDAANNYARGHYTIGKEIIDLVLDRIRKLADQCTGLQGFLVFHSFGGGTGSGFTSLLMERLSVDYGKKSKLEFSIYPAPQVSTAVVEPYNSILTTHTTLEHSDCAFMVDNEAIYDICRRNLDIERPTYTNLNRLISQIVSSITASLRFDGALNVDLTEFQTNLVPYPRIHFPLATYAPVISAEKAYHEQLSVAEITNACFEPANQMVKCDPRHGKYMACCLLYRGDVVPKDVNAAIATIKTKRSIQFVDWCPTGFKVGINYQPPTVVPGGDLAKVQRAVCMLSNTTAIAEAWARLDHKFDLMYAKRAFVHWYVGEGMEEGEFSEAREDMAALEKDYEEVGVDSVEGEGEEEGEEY

As for `COc1cc(OC)cc(C(=O)N2CCc3cc(OS(N)(=O)=O)c(OC)cc3C2=O)c1` [17 f, 2-(3,5-Dimethoxybenzoyl)-7-methoxy-6-sulfamoyloxy-3,4-dihydroisoquinolin-1(2H)-one], the inhibition at 1 µM at Bovine brain tubulin [1] (1 μM inhibitor, read-out: CB [% inhib.] 1 μM inhibitor) came to 65 ± 3%. In addition, the inhibition at 5 µM at Bovine brain tubulin [1] was found to be 89 ± 0.1%. Moreover, in [2], the “formation of tubule-like structures” value is reported as “almost completely inhibits”. The results for the concentration for 50% growth inhibition (GI50) in assay [3] and in assay [5] were 179 nM and 118 nM, respectively. Besides, the “fold more active than the 3′-methoxy derivatives” value in [3] is recorded as greater than 10 fold. Also, the IC50 (as a rule, the point on the concentration scale where inhibition reaches its midpoint) with Bovine brain tubulin [4] is 1300 ± 10 nM; against carbonic anhydrase it was 890 nM.
As to `COc1cc2c(cc1O)CCN(C(=O)c1cc(OC)c(OC)c(OC)c1)C2` [18 c], the figures for the GI50 in assay [6] and in assay [7] were 921 nM and 733 nM, respectively.
Consider `COc1cccc(CN2CCc3cc(OS(N)(=O)=O)c(OC)cc3C2)c1` [compound 2], for which the GI50 (in general, the concentration at which growth is held to half of that of the control) in [8] was 2100 nM.
For `COc1cc2c(cc1O)CCN(C(=O)c1cc(OC)c(OC)c(OC)c1)C2=O` [16 g, 6-Hydroxy-7-methoxy-2-(3,4,5-trimethoxybenzoyl)-3,4-dihydroisoquinolin-1(2H)-one], the inhibition at 5 µM at Bovine brain tubulin [1] stood at 83 ± 2%. Also, the concentration for 50% growth inhibition (GI50) in assay [3] was 51 nM; in the assay with Leukemia CCRF-CEM it was 17.1 nM; with Melanoma UACC-62, less than 10 nM; in the assay on Colon HCT-116, 21.6 nM; in the assay with Ovarian OVCAR-3 it was less than 10 nM; in the assay on CNS SF-539 it was 10.2 nM. Besides, the GI50 in [5] worked out at 71 nM; with Renal SN12-C it was 56 nM; in the assay on Lung HOP-62, 29.5 nM. In the assay with NCI 60-cell line panel, the “mean activity in the NCI 60-cell line assay” value was 33 nM. The “MGM (mean concentration that caused 50 % growth inhibition in all 60 cell lines)” value in the assay with NCI 60-cell line panel (all 60 cell lines) worked out at 0.033 µM. For the same molecule, the IC50 with Bovine brain tubulin [4] amounted to 1300 ± 100 nM.
As to `COc1cc2c(cc1OS(N)(=O)=O)CCN(C(=O)c1cc(OC)c(OC)c(OC)c1)C2` [19 c], the figures for the GI50 in assay [6] and in assay [7] were 1810 nM and 1720 nM, respectively.
For `COc1cc(OC)cc(C(=O)N2CCc3cc(O)c(OC)cc3C2=O)c1` [16 f, 6-Hydroxy-2-(3,5-dimethoxybenzoyl)-7-methoxy-3,4-dihydroisoquinolin-1(2H)-one], at Bovine brain tubulin [1], the inhibition at 5 µM was 81 ± 0.7%. Besides, the “formation of tubule-like structures” value in assay [2] is listed as “almost completely inhibits”. For the same molecule, in [3], the concentration for 50% growth inhibition (GI50) came to 215 nM and the “fold more active than the 3′-methoxy derivatives” value is greater than 10 fold. Further, the IC50 with Bovine brain tubulin [4] is 1500 ± 100 nM. The 50% growth inhibitory concentration (GI50) in assay [5] is 161 nM.
